For data set [1] the following is noted: ref unpublished data, cited from earlier work.
For data set [2] the following is noted: weakly basic APIs; cited from earlier work.
Data set [3] can be described thus: Equilibrium solubility in model lipid-based formulations. As to conditions: for Miscibility in MC-SEDDS (MCF) / Miscibility in LC-SEDDS (LCF): result in words; for Miscibility in LC-SEDDS (LCF) / Solubility in LC-SEDDS: long chain SEDDS.
Data set [4] can be described thus: Long term storage stability. The following applies: >6 months at −20 °C.

As a reminder, the pKa is the negative logarithm of the acid dissociation constant.

On to `C(=Cc1ccccc1)CN1CCN(C(c2ccccc2)c2ccccc2)CC1.CCCCC(CC)COC(=O)CC(C(=O)OCC(CC)CCCC)S(=O)(=O)O` [Cinnarizine docusate], for which, in data set [1] (long chain SEDDS), the “Miscibility in LC-SEDDS” value is reported as “miscible”. The “Miscibility in MC-SEDDS” value in data set [1] (medium chain SEDDS) is given as “miscible”.
With `C(=C\c1ccccc1)/CN1CCN(C(c2ccccc2)c2ccccc2)CC1` [Compound 1, cinnarizine], in data set [2], the pKa was greater than 8.
Consider `C(=C\c1ccccc1)/CN1CCN(C(c2ccccc2)c2ccccc2)CC1` [Compound 1b, cinnarizine], for which, in data set [3] (medium chain SEDDS), the “Miscibility in MC-SEDDS (MCF)” value is recorded as “miscible”.
In the case of `C(=C\c1ccccc1)/CN1CCN(C(c2ccccc2)c2ccccc2)CC1` [Compound 1c, cinnarizine], the “Miscibility in MC-SEDDS (MCF)” value in data set [3] (medium chain SEDDS) was “miscible”.
For `C(=C\c1ccccc1)/CN1CCN(C(c2ccccc2)c2ccccc2)CC1` [Compound 1d, cinnarizine], the “Miscibility in LC-SEDDS (LCF)” value in data set [3] is listed as “miscible”. For the same molecule, the “Miscibility in MC-SEDDS (MCF)” value in data set [3] (medium chain SEDDS) was “miscible”.
Regarding `C(=C\c1ccccc1)/CN1CCN(C(c2ccccc2)c2ccccc2)CC1` [Compound 1g, cinnarizine], in data set [3] (value of the main text), the “Solubility in LC-SEDDS” value is 17 mg/g.
As to `C(=C\c1ccccc1)/CN1CCN(C(c2ccccc2)c2ccccc2)CC1` [Compound 1h, cinnarizine], the “Crystallization after long term storage” value in data set [4] is on record as “showed signs of crystallization”.
In the case of `C(=C\c1ccccc1)/CN1CCN(C(c2ccccc2)c2ccccc2)CC1` [Compound 1i, cinnarizine], the “Miscibility in MC-SEDDS (MCF)” value in data set [3] (medium chain SEDDS) is reported as “miscible”.
The same measure, in the same setting: for `C(=C\c1ccccc1)/CN1CCN(C(c2ccccc2)c2ccccc2)CC1` [Compound 1j, cinnarizine] the value was “miscible”.
In the case of `C(=C\c1ccccc1)/CN1CCN(C(c2ccccc2)c2ccccc2)CC1` [Compound 1k, cinnarizine], the “Miscibility in LC-SEDDS (LCF)” value in data set [3] is given as “miscible”. Moreover, the “Miscibility in MC-SEDDS (MCF)” value in data set [3] (medium chain SEDDS) is “miscible”.
Regarding `CCCCN(CCCC)CC(O)c1cc(Cl)cc2c1-c1ccc(Cl)cc1/C2=C/c1ccc(Cl)cc1` (stereo not shown) [Compound 2, lumefantrine], in data set [2], the pKa was greater than 8.
In the case of `CCCCN(CCCC)CC(O)c1cc(Cl)cc2c1-c1ccc(Cl)cc1/C2=C/c1ccc(Cl)cc1` (stereo not shown) [Compound 2h, lumefantrine], in data set [3] (compared to the free base form), the “LBF solubility enhancement compared to the free base” value is on record as “up to 18 fold”. In data set [3], the “Miscibility in LC-SEDDS (LCF)” value is given as “miscible”. In addition, the “Miscibility in MC-SEDDS (MCF)” value in data set [3] (medium chain SEDDS) was “miscible”.
`CCCCN(CCCC)CC(O)c1cc(Cl)cc2c1-c1ccc(Cl)cc1/C2=C/c1ccc(Cl)cc1` (stereo not shown) [Compound 2k, lumefantrine]: the “Solubility in LC-SEDDS” value in data set [3] (value of the main text) worked out at 53 mg/g. In addition, in data set [3] (medium chain SEDDS, value of the main text), the “Solubility in MC-SEDDS” value is 66 mg/g.

The record behind these values is article PMC9051119 (RSC Advances, 2020).
